Measured values: article PMC10712729, “A Phase I Trial of the Dual MET Kinase/OCT-2 Inhibitor OMO-1 in Metastatic Solid Malignancies Including MET Exon 14 Mutated Lung Cancer” (The Oncologist, 2023)
“And” between values parts separate entries of the source, which are not always exact repeats. Equal entries are not always repeated.

Test: Phase I safety and tolerability of OMO-1 monotherapy, Module 1 Part A dose escalation (drug-related TEAEs, DLTs, RP2D)
Settings: for DLTs: first cycle
Description: This study was part of a modular, first-in-patient, openlabel multicenter study of OMO-1, administered orally, mono-therapy, and in combination with EGFR-TKI, in patients with locally advanced, unresectable, or metastatic solid malignancies (study protocol can be). […] Module 1 (OMO-1 monotherapy) consisted of Part A (dose escalation) and Part B (expansion cohorts). Part A assessed the safety and tolerability of ascending doses of OMO-1 given as monotherapy in unselected patients with locally advanced, unresectable, or metastatic malignancies and determined the recommended phase 2 dose (RP2D). Part B assessed the preliminary efficacy of the RP2D of OMO-1 in patients with METex14-positive NSCLC (cohort 1) and patients with MET amplified NSCLC or patients with other MET positive solid tumors, either METex14 or MET amplification (MET basket; cohort 2). The MET status of the tumor was assessed locally by site-specific guidelines. For MET exon 14 skipping mutations next generation sequencing (NGS) was used and for MET amplifications either NGS or fluorescence in situ hybridization (Supplementary 1). Prior treatment with a MET inhibitor was an exclusion criterion.
OMO-1 was administered orally, twice daily (BID) with a minimal interval of 4-5 h with food in a continuous 21 day/cycle regimen until clinical progression or emergence of significant toxicity. The starting dose was 100 mg BID. The dose was escalated sequentially in cohorts of at least 3 patients using a standard 3 + 3 dose escalation design. […] During the monotherapy dose escalation Module 1 Part A, blood samples were collected for PK analysis throughout the study as per protocol (S1).
The dose-limiting toxicity (DLT) evaluation period was within the first cycle of treatment; although all events beyond this point were also reviewed at the time of dose escalation to ensure an OLED was chosen as RP2D.
Safety analyses were descriptive. With respect to primary objectives and endpoints, no specific hypotheses were tested statistically. The primary focus was on determining the safety profile and RP2D, and the identification of a range of biologically active doses and PK of OMO-1 in patients with cancer. Safety, PK, and PD biomarker data were reviewed on an ongoing basis in line with the cohort progression criteria by the Safety Review Committee (SRC).

FC(F)(c1ccc2ncccc2c1)c1nnc2ccc(-c3ccncc3)nn12 [OMO-1]
Total n with AE, Drug-related TEAEs, SAE (350 mg BID n = 5): 1 (20%) n (%)
Vomiting, Drug-related TEAEs, All grades (350 mg BID n = 5): 3 (60%) n (%)
Vomiting, Drug-related TEAEs, SAE (350 mg BID n = 5): 1 (20%) n (%)
Anemia, Drug-related TEAEs, All grades (400 mg BID n = 3): 1 (33%) n (%)
Blood bilirubin ↑, Drug-related TEAEs, All grades (400 mg BID n = 3): 1 n (%)
Blood bilirubin ↑, Drug-related TEAEs, SAE (400 mg BID n = 3): 1 (33%) n (%)
Blood creatinine ↑, Drug-related TEAEs, All grades (400 mg BID n = 3): 3 (100%) n (%)
Blood creatinine ↑, Drug-related TEAEs, SAE (400 mg BID n = 3): 1 (33%) n (%)
Chills/ influenza like symptoms, Drug-related TEAEs, All grades (400 mg BID n = 3): 1 (33%) n (%)
Chills/ influenza like symptoms, Drug-related TEAEs, Grade ≥3 (400 mg BID n = 3): 1 (33%) n (%)
Chills/ influenza like symptoms, Drug-related TEAEs, SAE (400 mg BID n = 3): 1 (33%) n (%)
Decreased appetite, Drug-related TEAEs, All grades (400 mg BID n = 3): 0 n (%)
Diarrhoea, Drug-related TEAEs, All grades (400 mg BID n = 3): 1 (33%) n (%)
Diarrhoea, Drug-related TEAEs, SAE (400 mg BID n = 3): 1 (33%) n (%)
Fatigue, Drug-related TEAEs, All grades (400 mg BID n = 3): 2 (67%) n (%)
Nausea, Drug-related TEAEs, All grades (400 mg BID n = 3): 1 (33%) n (%)
Nausea, Drug-related TEAEs, SAE (400 mg BID n = 3): 1 (33%) n (%)
Neutrophil count↓, Drug-related TEAEs, All grades (400 mg BID n = 3): 1 n (%)
Neutrophil count↓, Drug-related TEAEs, SAE (400 mg BID n = 3): 1 (33%) n (%)
Tachycardia, Drug-related TEAEs, All grades (400 mg BID n = 3): 1 (33%) n (%)
Total n with AE, Drug-related TEAEs, All grades (400 mg BID n = 3): 3 (100%) n (%)
Total n with AE, Drug-related TEAEs, Grade ≥3 (400 mg BID n = 3): 1 (33%) n (%)
Total n with AE, Drug-related TEAEs, SAE (400 mg BID n = 3): 2 (67%) n (%)
patients discontinued due to related toxicity (100, 200, and 250 mg BID): 25% (4/16)
Anemia, Drug-related TEAEs, All grades (All doses n = 24): 4 (17%) n (%)
Anemia, Drug-related TEAEs, Grade ≥3 (All doses n = 24): 1 (4%) n (%)
Blood bilirubin ↑, Drug-related TEAEs, All grades (All doses n = 24): 1 (4%) n (%)
Blood bilirubin ↑, Drug-related TEAEs, SAE (All doses n = 24): 1 (4%) n (%)
Blood creatinine ↑, Drug-related TEAEs, All grades (All doses n = 24): 9 (38%) n (%)
Blood creatinine ↑, Drug-related TEAEs, Grade ≥3 (All doses n = 24): 1 (4%) n (%)
Blood creatinine ↑, Drug-related TEAEs, SAE (All doses n = 24): 1 (4%) n (%)
Chills/ influenza like symptoms, Drug-related TEAEs, All grades (All doses n = 24): 3 (13%) n (%)
Chills/ influenza like symptoms, Drug-related TEAEs, Grade ≥3 (All doses n = 24): 1 (4%) n (%)
Chills/ influenza like symptoms, Drug-related TEAEs, SAE (All doses n = 24): 2 (8%) n (%)
Decreased appetite, Drug-related TEAEs, All grades (All doses n = 24): 4 (17%) n (%)
Diarrhoea, Drug-related TEAEs, SAE (All doses n = 24): 1 (4%) n (%)
Dizziness, Drug-related TEAEs, All grades (All doses n = 24): 4 (17%) n (%)
Fatigue, Drug-related TEAEs, All grades (All doses n = 24): 10 (42%) n (%)
Fatigue, Drug-related TEAEs, Grade ≥3 (All doses n = 24): 1 (4%) n (%)
Headache, Drug-related TEAEs, All grades (All doses n = 24): 5 (21%) n (%)
Nausea, Drug-related TEAEs, Grade ≥3 (All doses n = 24): 1 (4%) n (%)
Nausea, Drug-related TEAEs, SAE (All doses n = 24): 3 n (%) and 3 (13%) n (%)
Neutrophil count↓, Drug-related TEAEs, All grades (All doses n = 24): 1 (4%) n (%)
Neutrophil count↓, Drug-related TEAEs, SAE (All doses n = 24): 1 (4%) n (%)
Tachycardia, Drug-related TEAEs, All grades (All doses n = 24): 3 (13%) n (%)
Total n with AE, Drug-related TEAEs, All grades (All doses n = 24): 23 (96%) n (%)
Total n with AE, Drug-related TEAEs, Grade ≥3 (All doses n = 24): 6 (25%) n (%)
Total n with AE, Drug-related TEAEs, SAE (All doses n = 24): 7 n (%) and 7 (29%) n (%)
Vomiting, Drug-related TEAEs, All grades (All doses n = 24): 9 (38%) n (%)
Vomiting, Drug-related TEAEs, Grade ≥3 (All doses n = 24): 2 (8%) n (%)
Vomiting, Drug-related TEAEs, SAE (All doses n = 24): 2 n (%) and 2 (8%) n (%)
grade 5 (fatal) TEAEs (Module 1 Part A): No grade 5 (fatal) TEAEs
number of drug-related SAEs (Module 1 Part A, all doses): 11
number of drug-related TEAE recorded (Module 1 Part A, all doses): 129
patients discontinued due to toxicity related to OMO-1, in total (Module 1 Part A, all doses): 8 patients
patients with drug-related TEAE (Module 1 Part A, all doses): 23 out of 24
DLTs (cohort 1 (100 mg BID)): no DLTs
DLTs (cohort 2 (200 mg BID)): no DLTs
number of TEAEs that led to OMO-1 treatment discontinuation (cohort 3 (400 mg BID)): 6 TEAEs
patients requiring a dose reduction due to treatment-related toxicity (cohort 3 (400 mg BID)): 2 out of 3
DLTs (cohort 3 (400 mg BID)): no DLTs
DLTs (cohort 4 (250 mg BID)): No DLTs
peripheral edema related to OMO-1 (in vivo): No reports
recommended phase 2 dose (RP2D) (oral monotherapy, 3 + 3 dose escalation, continuous 21 day/cycle): 250 mg BID
